Test results from patent US20230124589A1, “Ivacaftor Glycosides, Methods Of Making, And Uses Thereof In Treating Cystic Fibrosis” (DoubleRainbow Biosciences Inc., priority 2020, published 2023).
Converted amounts (≈) assume the structure as drawn.

Assays:
[1] = background statement, no method given; cited from earlier work
[2] = Water solubility (excess compound suspended in distilled water, supernatant measured by HPLC); type: physicochemical
Method: The water solubility of ivacaftor and ivacaftor-17-O-D-glucoside was investigated by suspending excess amounts of the two compounds in 200 μl of distilled water in a microcentrifuge tube at 25° C. for 12 h. Afterwards, each sample was centrifuged at 12,000×g for 20 min. The supernatant of each sample was then filtered through a 0.45-μm membrane filter and the concentration of the compound in the supernatant, which is defined as the water-soluble component, was measured by its absorbance at 300 nm using HPLC, and its absolute solubility was calculated in reference to the concentration-absorbance standard curve.

solubility at 12 h ([2]; 25 °C, water, thermodynamic from solid) | water solubility, times higher than ivacaftor ([2]; distilled water, 25° C., 12 h, relative to ivacaftor) | water solubility ([2]; distilled water, 25° C., 12 h, supernatant filtered 0.45-μm, absorbance at 300 nm by HPLC) | SMILES | solubility in water [1]
0.1 µg/mL (≈ 0.255 µM) |  |  | CC(C)(C)c1cc(C(C)(C)C)c(NC(=O)c2c[nH]c3ccccc3c2=O)cc1O [ivacaftor, Ivacaftor] | < 1 µg/mL
 | 14,550 times | 1,455 mg/L | CC(C)(C)c1cc(C(C)(C)C)c(OC2O[C@H](CO)[C@@H](O)[C@H](O)[C@H]2O)cc1NC(=O)c1c[nH]c2ccccc2c1=O (stereo partly drawn) [ivacaftor-17-O-D-glucoside] | 
